Measurements from DBAASP.
Converted amounts (≈) assume the structure as drawn. Each block holds one molecule with its values, some of them ahead of it.

Tests used:
Experiment in all cases: ≥ marks a high value that may be exact or a test limit, other limits are often not marked, values filed in µg/mL are converted to µM
[1] = tested on: Escherichia coli ATCC 25922
[2] = tested on: Candida albicans ATCC 37092
[3] = tested on: Staphylococcus aureus ATCC 29213
[4] = tested on: Psychrobacter faecalis X29
[5] = tested on: Candida glabrata 090902
[6] = tested on: Nocardia asteroides
[7] = tested on: Enterococcus faecium 091299
[8] = tested on: Staphylococcus aureus ATCC 25923
[9] = tested on: Enterobacter cloacae CGMCC 1.57
[10] = tested on: Enterococcus faecalis 981
[11] = tested on: Salmonella typhimurium CCARM 8009
[12] = tested on: Pseudomonas aeruginosa 4007
[13] = tested on: Salmonella typhimurium KCTC 1926
[14] = tested on: Aspergillus awamori KCTC 6915
[15] = tested on: Listeria monocytogenes KCTC 3710
[16] = tested on: Bacillus subtilis KCTC 1918
[17] = tested on: Aspergillus parasiticus KCTC 6598
[18] = tested on: Staphylococcus epidermidis ATCC 12228
[19] = tested on: Escherichia coli CCARM 1229
[20] = tested on: Staphylococcus aureus CCARM 3114
[21] = tested on: Pseudomonas aeruginosa KCTC 1637
[22] = tested on: Escherichia coli CCARM 1238
[23] = tested on: Proteus vulgaris KCTC 2433
[24] = tested on: Pseudomonas aeruginosa ATCC 15692
[25] = tested on: Staphylococcus aureus CCARM 3089
[26] = tested on: Aspergillus flavus KCTC 6905
[27] = tested on: Salmonella typhimurium CCARM 8013
[28] = tested on: Staphylococcus aureus PBEL
[29] = tested on: Staphylococcus epidermidis KCTC 3096
[30] = tested on: Listeria monocytogenes ATCC 19115
[31] = tested on: Aspergillus fumigatus KCTC 6145
[32] = tested on: Bacillus subtilis KCTC 1998
[33] = tested on: Pseudomonas aeruginosa 3547
[34] = tested on: Candida albicans KCTC 7270
[35] = tested on: Trichosporon beigelii KCTC 7707
[36] = tested on: Staphylococcus epidermidis
[37] = tested on: Staphylococcus aureus A170
[38] = tested on: Pectobacterium carotovorum
[39] = tested on: Klebsiella pneumoniae
[40] = tested on: Fusarium oxysporum
[41] = tested on: Vibrio harveyi
[42] = tested on: Penicillium crustosum
[43] = tested on: Micrococcus luteus
[44] = tested on: Vibrio anguillarum
[45] = tested on: Vibrio alginolyticus
[46] = tested on: Staphylococcus aureus
[47] = tested on: Bacillus megaterium
[48] = tested on: Escherichia coli 363
[49] = tested on: Salmonella typhimurium
[50] = tested on: Enterobacter cloacae
[51] = tested on: Vibrio penaeicida
[52] = tested on: Botrytis cinerea
[53] = tested on: Aerococcus viridans

MIC [1]: > 500 µM | MIC [2]: ≥ 500 µM | MIC [3]: > 500 µM
SMILES: CC(C)C[C@H](NC(=O)[C@@H]1CCCN1C(=O)[C@H](CCCN=C(N)N)NC(=O)[C@@H]1CCCN1C(=O)[C@H](CCCN=C(N)N)NC(=O)[C@@H]1CCCN1)C(=O)N1CCC[C@H]1C(=O)N[C@@H](Cc1ccccc1)C(=O)N1CCC[C@H]1C(=O)N[C@@H](CCCN=C(N)N)C(=O)N1CCC[C@H]1C(=O)NCC(=O)O [PRPRPLPFPRPG]

MIC [4]: 25 µM (≈ 64.1 µg/mL) | MIC [5]: 12.5 µM (≈ 32 µg/mL) | MIC [6]: 3.1 µM (≈ 7.94 µg/mL) | MIC [7]: ≥ 50 µM | MIC [8]: 3.1 µM (≈ 7.94 µg/mL) | MIC [9]: ≥ 100 µM | MIC [10]: 3.1 µM (≈ 7.94 µg/mL)
SMILES: CC[C@H](C)[C@H](NC(=O)[C@H](C)NC(=O)[C@@H](NC(=O)[C@@H]1CCCN1C(=O)[C@H](CC(C)C)NC(=O)[C@@H](NC(=O)[C@H](Cc1cnc[nH]1)NC(=O)[C@H](C)NC(=O)[C@H](C)NC(=O)[C@@H](NC(=O)[C@H](CCCCN)NC(=O)[C@H](CC(C)C)NC(=O)[C@@H](NC(=O)[C@H](C)NC(=O)[C@@H]1CCCN1C(=O)[C@H](CC(C)C)NC(=O)[C@@H](N)Cc1ccccc1)C(C)C)C(C)C)[C@@H](C)CC)[C@@H](C)O)C(=O)N[C@H]1CSSC[C@@H](C(=O)O)NC(=O)[C@H](CCCN=C(N)N)NC(=O)[C@H](CCCN=C(N)N)NC(=O)[C@H](CO)NC(=O)[C@H]([C@@H](C)CC)NC(=O)[C@H](C)NC1=O [FLPAVLKVAAHILPTAICAISRRC]

MIC [11]: 2 µM (≈ 3.85 µg/mL) | MIC [12]: 1 µM (≈ 1.92 µg/mL) | MIC [13]: 1.41 µM (≈ 2.72 µg/mL) | MIC [14]: 8 µM (≈ 15.4 µg/mL) | MIC [15]: 2 µM (≈ 3.85 µg/mL) | MIC [16]: 2 µM (≈ 3.85 µg/mL) | MIC [17]: 8 µM (≈ 15.4 µg/mL) | MIC [18]: 2.83 µM (≈ 5.44 µg/mL) | MIC [19]: 1.41 µM (≈ 2.72 µg/mL) | MIC [20]: 4 µM (≈ 7.7 µg/mL) | MIC [21]: 2 µM (≈ 3.85 µg/mL) | MIC [22]: 2 µM (≈ 3.85 µg/mL) | MIC [23]: 2.83 µM (≈ 5.44 µg/mL) | MIC [24]: 2 µM (≈ 3.85 µg/mL) | MIC [25]: 2 µM (≈ 3.85 µg/mL) | MIC [26]: 8 µM (≈ 15.4 µg/mL) | MIC [27]: 1 µM (≈ 1.92 µg/mL) | MIC [28]: 1 µM (≈ 1.92 µg/mL) | MIC [29]: 2.83 µM (≈ 5.44 µg/mL) | MIC [30]: 2 µM (≈ 3.85 µg/mL) | MIC [31]: 4 µM (≈ 7.7 µg/mL) | MIC [32]: 2 µM (≈ 3.85 µg/mL) | MIC [33]: 2.83 µM (≈ 5.44 µg/mL) | MIC [34]: 8 µM (≈ 15.4 µg/mL) | MIC [35]: 16 µM (≈ 30.8 µg/mL)
SMILES: CC[C@H](C)[C@H](NC(=O)[C@H](CCCCN)NC(=O)[C@H](CCCCN)NC(=O)[C@H](C)NC(=O)[C@H](CC(C)C)NC(=O)[C@H](CCCCN)NC(=O)[C@H](CCCCN)NC(=O)[C@H](CC(C)C)NC(=O)[C@H](CCCN=C(N)N)NC(=O)[C@H](CCCCN)NC(=O)[C@H](C)N)C(=O)N[C@@H](Cc1c[nH]c2ccccc12)C(=O)N[C@@H](CCCCN)C(=O)N[C@@H](Cc1c[nH]c2ccccc12)C(=O)N[C@@H](CCCCN)C(N)=O [AKRLKKLAKKIWKWK]

MIC [36]: 13.8 µM (≈ 20 µg/mL) | MIC [37]: 6.9 µM (≈ 10 µg/mL)
SMILES: CC[C@H](C)[C@H](NC(=O)[C@@H](NC(=O)[C@@H](NC(=O)[C@@H]1CCCN1C(=O)[C@H](CC(C)C)NC(=O)[C@@H](N)CC(C)C)[C@@H](C)CC)C(C)C)C(=O)N[C@@H](CC(N)=O)C(=O)N[C@@H](CC(C)C)C(=O)N[C@@H](CC(C)C)C(=O)N[C@@H](CCCCN)C(=O)N[C@@H](CO)C(=O)N[C@@H](CC(C)C)C(=O)N[C@@H](CC(C)C)C(=O)O [LLPIVINLLKSLL]

MIC [38]: ≥ 50 µM | MIC [39]: 25 µM (≈ 56.7 µg/mL) | MIC [40]: 12.5 µM (≈ 28.3 µg/mL) | MIC [41]: ≥ 50 µM | MIC [42]: 25 µM (≈ 56.7 µg/mL) | MIC [43]: 6.25 µM (≈ 14.2 µg/mL) | MIC [44]: ≥ 100 µM | MIC [45]: 25 µM (≈ 56.7 µg/mL) | MIC [46]: 50 µM (≈ 113 µg/mL) | MIC [47]: 3.12 µM (≈ 7.07 µg/mL) | MIC [48]: 25 µM (≈ 56.7 µg/mL) | MIC [49]: 25 µM (≈ 56.7 µg/mL) | MIC [50]: 25 µM (≈ 56.7 µg/mL) | MIC [51]: ≥ 100 µM | MIC [52]: 12.5 µM (≈ 28.3 µg/mL) | MIC [53]: 6.25 µM (≈ 14.2 µg/mL)
SMILES: CSCC[C@H](NC(=O)[C@H](CCCN=C(N)N)NC(=O)CNC(=O)[C@H](CCCCN)NC(=O)[C@H](Cc1ccc(O)cc1)NC(=O)[C@H](Cc1ccc(O)cc1)NC(=O)[C@@H](NC(=O)[C@H](CCC(N)=O)NC(=O)[C@H](Cc1ccccc1)NC(=O)[C@H](CCCN=C(N)N)NC(=O)[C@H](CCCCN)NC(=O)[C@H](CC(C)C)NC(=O)[C@H](Cc1ccc(O)cc1)NC(=O)[C@@H]1CCCN1C(=O)[C@@H](N)CCCCN)C(C)C)C(=O)N[C@@H](Cc1c[nH]c2ccccc12)C(=O)N[C@@H](CS)C(=O)O [KPYLKRFQVYYKGRMWC]
